Assay results from patent publication US20100130425A1, “USE OF TOLL-LIKE RECEPTOR LIGANDS IN TREATING EXCITOTOXIC INJURY, ISCHEMIA AND/OR HYPOXIA” (Oregon Health & Science University, priority 2005, published 2010).

Tests used:
[1] = tested on: mouse cortical neuronal cultures
Experimental: In vitro mouse neuronal cultures: Cortical neuronal cultures were prepared as described Jin et al. (Neurochem. Res. 27:1105-1112, 2002) from E-16 mouse pups (C57B1/6, Jackson labs). Briefly, cortices were dissected and separated from meninges, olfactory bulbs, basal ganglia and hippocampi, and the cortices digested in 0.05% trypsin-EDTA for 15 min at 37° C. Cells were triturated and single cell suspension was plated at density of 5×10^5 cells/ml. Cells were cultured in Neurobasal A medium (Invitrogen, Carlsbad) containing 2% B27, 2 mM Glutamate. Neuronal enrichment was determined by staining for neurons, microglia and astrocytes with cell specific markers.
In vitro neuronal ischemia model: Neuronal cultures were treated with varying doses of an exemplary CpG oligonucleotide (SEQ ID NO: 1) in Neurobasal-A media supplemented with 1% Glutamax 24 hours prior to 3 hours oxygen-glucose-deprivation (OGD) treatment. OGD was performed by replacing medium with PBS containing 0.5 mM CaCl2 and 5 mM MgCl2, pH 7.4, and then placing the neuronal cultures in an anaerobic chamber (Form a Scientific) containing an atmosphere of 85% N2, 5% H2, 10% CO2 maintained at 35° C. Following OGD-treatment (3 hours), PBS was replaced with Minimum Essential Medium (MEM) and the cells returned to normoxic conditions. Percent neuronal cell death was determined by propidium iodide staining in two different fields of view in duplicate, compared to total DAPI staining in identical fields.
In vitro neuronal ischemia model: Neuronal cultures were treated with varying doses (0.1 μg/ml and 1 μg/ml) of Gardiquimod in Neurobasal-A media supplemented with 1% Glutamax 24 hours prior to 3 hours oxygen-glucose-deprivation (OGD) treatment. OGD was performed and cells analyzed as described in Example 1.
OGD was performed and cell analyzed as described in Example 1.

[2] = tested on: mouse cortical neuronal cultures; assay: In vitro neuronal ischemia model, treatment after OGD; assay type: cell-based; settings: 1 to 100 μg/ml after 3 hours OGD; analyzed 24 hours later
Experimental: In vitro neuronal ischemia model: Neuronal cultures were exposed to 3 hours oxygen-glucose-deprivation (OGD) treatment as described in Example 1. After OGD, cells were treated with 1 to 100 μg/ml Poly I:C. 24 hours later cells were analyzed as described in Example 1.

[3] = tested on: TNF-α; assay: Serum TNF-α in mice, immunoassay; assay type: in vivo, mouse; settings: 1 mg/kg, 2 hours prior to serum collection
Experimental: (§1) Mice were injected with saline, CpG (0.8 mg/kg) LPS (0.4 mg/kg) or Poly I:C (1 mg/kg) 2 hours prior to serum collection. Levels of TNF-α and IFN-β were measured using commercially available immunoassay kits.

[4] = tested on: mice subjected to bilateral renal ischemia; assay: In vivo model of renal ischemia (bilateral renal clamping), serum creatinine; design: species or system mouse; settings: 48 hours prior to bilateral renal clamping (45 minutes); 48 hours following reperfusion
Experimental: Intraperitoneal Delivery: Preconditioning agent Poly I:C (25 μg) in artificial saline or saline alone (control) was administered intraperitoneally to subject mice 72 hours prior to middle cerebral artery occlusion (MCAO; 45 minutes) as described in Example 3 or 48 hours prior to bilateral renal clamping (45 min).
Creatinine levels: To assess renal injury due to the ischemia, creatinine levels were measured 48 hours following reperfusion as follows. Mice were treated with saline or poly I:C (1.6 mg/kg; sc) 48 hrs prior to renal ischemia. Just prior to surgery blood was collected via the saphenous vien for baseline determination of creatinine levels. Bilateral ischemia was induced as follows: mice were anesthestized with 3% isoflurane and maintained at 1.5-2% throughout surgery. A midline incision was made and both kidneys exteriorized and clamps placed on the artery and veins of each kidney for 45 minutes. After ischemia, the clamps were withdrawn inducing reperfusion and the incision sutured up. Mice were euthanized 48 hr post initiation of reperfusion and blood collected. Serum levels of creatinine were determined via a commercially available immunoassay.

[5] = tested on: IFN-β; assay: Serum IFN-β in mice, immunoassay; assay type: in vivo, mouse; settings: 1 mg/kg, 2 hours prior to serum collection; versus CpG 0.8 mg/kg and LPS 0.4 mg/kg
Experimental: as §1

[6] = tested on: mice subjected to middle cerebral artery occlusion (MCAO); assay: In vivo ischemic/reperfusion model (MCAO), mouse model of stroke
Experimental: Ischemic/Reperfusion Model. […] Mice were anesthetized by halothane inhalation (4%/L O2) and maintained with 1.5%/L O2. The middle cerebral artery was blocked by a silicone-coated 8-0 monofilament nylon surgical suture that was threaded through the external carotid to the internal carotid and finally blocks the bifurcation into the MCA and anterior cerebral artery. The filament was maintained intraluminally for 45 min and then removed, thereby restoring blood flow. Cerebral blood flow (CBF) was monitored throughout the surgery by laser Doppler flowmetry (Periflow 5000; Perimed, Sweden). During and 2 hours following surgery, body temperatures was kept constant at 37° C. with a heating pad controlled by a thermostat. Body weights were monitored prior to and following MCAO.
Infarct calculations. […] Perfused brains were placed on a tissue slicer and sectioned into 1 mm thick coronal slices.

[7] = target: T1, human TLR9 (Homo sapiens, UniProt Q9NR96); assay: NF-κB inducible SEAP reporter in 293-hTLR9 cells; assay type: cell-based; settings: 5 μM, 18 hours; hydrolysis of pNpp at 405 nm
T1 construct: host or cells: HEK293 (293-hTLR9)
T1 sequence (Q9NR96 26-1032): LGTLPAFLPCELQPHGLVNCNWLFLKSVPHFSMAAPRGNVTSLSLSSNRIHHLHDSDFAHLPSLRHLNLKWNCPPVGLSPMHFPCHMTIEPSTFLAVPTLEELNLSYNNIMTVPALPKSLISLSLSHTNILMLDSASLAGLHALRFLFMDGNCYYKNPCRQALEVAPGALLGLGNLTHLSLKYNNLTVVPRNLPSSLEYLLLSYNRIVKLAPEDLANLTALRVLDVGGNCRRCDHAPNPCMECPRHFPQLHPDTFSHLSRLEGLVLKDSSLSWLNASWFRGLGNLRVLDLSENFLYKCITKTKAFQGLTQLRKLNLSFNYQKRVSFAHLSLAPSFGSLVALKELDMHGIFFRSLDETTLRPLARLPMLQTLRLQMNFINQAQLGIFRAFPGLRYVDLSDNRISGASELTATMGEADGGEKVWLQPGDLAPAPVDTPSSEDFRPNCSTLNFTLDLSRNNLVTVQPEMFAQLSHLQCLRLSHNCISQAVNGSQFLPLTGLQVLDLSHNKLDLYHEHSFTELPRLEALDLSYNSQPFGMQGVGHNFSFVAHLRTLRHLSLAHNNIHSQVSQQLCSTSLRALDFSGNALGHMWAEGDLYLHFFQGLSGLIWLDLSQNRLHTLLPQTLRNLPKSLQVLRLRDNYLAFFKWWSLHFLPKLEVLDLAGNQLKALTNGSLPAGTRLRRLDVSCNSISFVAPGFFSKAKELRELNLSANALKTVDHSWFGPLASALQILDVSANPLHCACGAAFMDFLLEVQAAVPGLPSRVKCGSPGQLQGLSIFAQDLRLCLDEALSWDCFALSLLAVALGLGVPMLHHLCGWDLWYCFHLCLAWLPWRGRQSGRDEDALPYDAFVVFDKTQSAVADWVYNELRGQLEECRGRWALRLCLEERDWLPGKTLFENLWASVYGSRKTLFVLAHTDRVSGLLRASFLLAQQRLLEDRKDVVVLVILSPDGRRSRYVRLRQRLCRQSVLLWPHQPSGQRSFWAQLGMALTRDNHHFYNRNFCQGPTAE
Experimental: FIG. 3 is a bar graph illustrating NF-κB induction following in vitro treatment with an exemplary CpG oligonucleotide. 293-hTLR9 cells transfected with an NFκB inducible reporter plasmid (pNifty2-SEAP) were treated with CpG (5 μM). NFκB induction of alkaline phosphatase expression is indicated as hydrolysis of pNpp at 405 nm.
Human embryonic kidney cell line HEK293 was transfected with an expressible nucleic acid encoding human TLR9 and with an NFκB reporter construct (InvivoGen). The dual transfected cells were incubated with a 5 μM CpG oligonucleotide (SEQ ID NO: 1) for 18 hours.

[8] = cited from earlier work
[9] = 0.2-1.6 mg/kg subcutaneous 72 hours prior to 60 minutes MCAO, 24 hours post MCAO

## polyinosinic polycytidylic acid [Poly I:C]
[1]; highest dose, no OGD
  cell death without exposure to OGD: did not induce cell death
[1]; mixed cortical cultures, increasing doses 24 hours prior to OGD
  neuroprotection against oxygen-glucose deprivation (cell death by PI staining): induces neuroprotection against oxygen-glucose deprivation
[2]
  neuroprotection, treatment after oxygen-glucose deprivation: induces neuroprotection
[3]
  serum TNFα levels: increases TNFα levels
[4]
  serum creatinine levels (renal injury): reduced the injury to baseline levels
[5]
  serum IFNβ levels: produces significantly more IFNβ than stimulation of TLR9 or TLR4
[6]; 25 μg intraperitoneally 72 hours prior to 45 minutes MCAO, TTC 72 hours following surgery
  percent infarct: percent infarct was significantly decreased

## 5′-tccatgacgttcctgacgtt-3′ [CpG oligonucleotide (SEQ ID NO: 1)]
[7]
  NFκB induction of alkaline phosphatase expression: produced alkaline phosphatase
[1]; treated 24 hours prior to 3 hours OGD, propidium iodide staining
  neuroprotection against oxygen-glucose deprivation (percent neuronal cell death): confers neuroprotection against oxygen-glucose deprivation
[6]; 20 μg administered between 72 and 24 hours prior to MCAO
  percent infarct, time course of preconditioning: peak preconditioning
[6]; 20 μg administered up to a week prior to MCAO
  percent infarct, time course of preconditioning: significant preconditioning
[6]; intraperitoneal, 72 hours prior to 45 min MCAO
  percent infarct: percent infarct was significantly decreased

## CCOCc1nc2c(N)nc3ccccc3c2n1CC(C)(C)O [resiquimod]
[6]; 0.8 mg/kg s.c. 72 hours prior to MCAO, 24 hours following MCAO
  infarct size: provides neuroprotection against cerebral ischemia

## CCOCc1nc2c(N)nc3ccccc3c2[nH]1 [CL097]
[8]
  water solubility: ≥ 20 mg/mL

## CC(C)Cn1cnc2c(N)nc3ccccc3c21 [imiquimod]
[6]; mouse, in vivo, ip
  infarct size: protects against cell death

## lipopolysaccharide [LPS]
[6]; mouse, in vivo, 0.4 mg/kg
  infarct size (neuroprotection): no considerable neuroprotection

## CCNCc1nc2c(N)nc3ccccc3c2n1CC(C)(C)O [Gardiquimod]
[1]; 0.1 or 1 μg/ml 24 hours prior to OGD (3 hours), propidium iodide staining 24 hours following OGD
  neuroprotection against oxygen-glucose deprivation (% cell death): confers neuroprotection against oxygen-glucose deprivation
[6]; 0.2-1.6 mg/kg 72 hours prior to 60 minutes MCAO, TTC staining 24 hours later
  percent infarct (% of hemisphere with infarction): percent infarct was significantly decreased in a dose-dependent fashion
[6]; [9]
  focal neurological deficit: reduced neurological deficits
  general neurological deficit: reduced neurological deficits
